Data taken from patent publication US20230391748A1, “BICYCLIC INHIBITORS OF IRAK” (priority 2022, published 2023).
Like-named read-outs stand apart in the source and are kept apart here.

Legend:
IRAK4 = IRAK4 (Homo sapiens (Human), UniProt Q9NWZ3); experiment: IRAK4 ADP-Glo Assay; type: biochemical; details: MBP substrate
Protocol: The ADP-Glo™ reagents were thawed at ambient temperature. The Kinase Detection Reagent was prepared by mixing kinase detection buffer with the lyophilized kinase detection substrate, and set aside.
A stock volume of 5× Reaction Kinase Buffer was made with a final concentration of 100 mM MgCl2, 200 mM Tris-HCl, and 0.5 mg/ml of BSA, in distilled H2O with a final pH7.4. A 2× working stock volume of Reaction Kinase Buffer was made containing a final concentration of 100 μM DTT.
The components of IRAK4 Enzyme were thawed on ice. Diluted IRAK4 in 1× Kinase Reaction Buffer (diluted from 2× buffer) was prepared at 5.0 ng/μl.
Then diluted 1:5 in 2× Reaction Buffer in a 96 well plate. 1.0 μl was transferred to a 384 well plate in duplicate. […] 1 μl of 1 mg/ml stock solution of MBP substrate was added NOTE: MBP can be combined with ATP mix with equal volume and then added at 2 μl/well. Final reaction volume was 5 μl.
The plate was centrifuged and the reaction mixture was incubated at room temperature for 60 minutes or at 30° C. for 30 minutes.
The reaction was terminated and the remaining ATP was depleted by adding 5 μl of ADP-Glo™ Reagent. The 384-well plate was centrifuged and then the reaction mixture was incubated for another 40 minutes at ambient temperature.
10 μl of the Kinase Detection Reagent was added. The plate was centrifuged and then the reaction mixture was incubated for another 30 minutes at ambient temperature.
The 384-well reaction plate was read using the WALLAC plate reader (Luminescence 0.1s).

IL23p19 in THP-1 Cells = experiment: LPS Induced IL23p19 in THP-1 Cells (with IFNγ Primed) Assay; type: cell-based; details: Homo sapiens, THP-1, 18 h, read-out: IL23 (THP, LPS) (IC50, μM)
Protocol: LPS Induced IL23p19 in THP-1 Cells (with IFNγ Primed) Assay
On day 1, 50K/well THP-1 cells were seeded and primed with IFNγ (50 ng/mL) in 384-well plates for about 18 hours in RPMI media with 10% FBS. […] 50 μL/well 2× compound was added to 50 μL/well THP-1 cells (with IFNγ primed) in duplicate in 384 well tissue culture plates. […] Day 3, after stimulation for 18 hours at 37° C., 5% CO2, the assay plate was centrifuged and 70 μL/well supernatant was harvested. IL-23p19 protein in 70 µL/well of supernatant was measured by sandwich ELISA, and 25 μl/well Cell Titer Glo reagent was added to the remaining cells to measure compound toxicity.
Maxisorp immuno ELISA plates were pre-coated with 25 μL/well of anti-IL-23p19 capture antibody (2.5 ug/mL) in PBS overnight at room temperature. […] 25 μL/well of biotin labeled anti-IL-12(p40/p70) detection antibody (100 ng/mL) in PBS with 1% BSA was added and the plates were incubated at room temperature for 2 hours with shaking. […] The plates were read with a luminometer, and the chemiluminescence values were entered into Athena (Rigel) for curve fitting, EC50 calculation, and database storage.

TNF-α in human PBMCs = experiment: R848-induced TNF-α in human PBMCs Assay; type: cell-based; details: Homo sapiens, PBMC, 4 h, read-out: TNFα (PBMC, R848) (IC50, μM)
Protocol: R848-induced TNF-α in human PBMCs Assay
100 μL/well PBMCs (200K/well) were seeded in 96-well flat-bottom tissue culture plates. […] 100 μL/well 2× compound was added to the PBMC in the tissue culture plates. […] The cells were stimulated with R848 for an additional 4 hours at 37° C., 5% CO2. The supernatant (100 μl/well) was harvested to measure TNF-α by ELISA. […] The chemiluminescence values were entered into Athena (Rigel) for curve fitting, EC50 calculation, and database storage.
(§1) TNF-α ELISA was performed according to the vendor protocol, using 96 Well Flat-Bottom, MaxiSorp Black Immuno plates and 100 μL/well of supernatant. The plates were developed using 100 μL/well of Super Signal ELISA Pico Chemiluminescent Substrate. The plates were read with a luminometer, and the chemiluminescence values were entered into Athena (Rigel) for curve fitting, EC50 calculation, and database storage.

[1] = test system: TNF-α in Human Primary Monocyte-Derived Dendritic Cells; experiment: Gardiquimod-Induced TNF-α in Human Primary Monocyte-Derived Dendritic Cells; type: cell-based; details: Dendritic cell
Protocol: Gardiquimod-Induced TNF-α in Human Primary Monocyte-Derived Dendritic Cells
After 2 hours, the media including floating cells was carefully removed and 12 ml of fresh RPMI media (10% FBS) containing GM-CSF (100 ng/ml) and IL-4 (20 ng/ml) were added to the adherent monocytes. The monocytes were allowed to differentiate for 7 days at 37° C., 5% CO2 for 7 days, supplementing with fresh GM-CSF and IL-4 after 3 days. The differentiated dendritic cells (DC) were harvested by centrifugation (1200 rpm/5 min). The DCs were primed at 37° C., 5% CO2 for 24 hours with 50 ng/ml IFN-γ (1000 U/ml) at 50K/well in 100 μl/well of fresh RPMI media (10% FBS) in a white clear bottom 96 well plate.
The primed DCs were pre-incubated with test compound for 1 hour at 37° C., 5% CO2 by adding 100 μl of RPMI media containing 2× concentrated test compound per well (0.5% final DMSO concentration).
DCs were stimulated with Gardiquimod (10 μl per well of 20× concentrated Gardiquimod solution in RPMI media to give a final concentration of 4 μg/ml) at 37° C., 5% CO2 for an additional 6 hours. The supernatant (100 μl/well) was harvested to measure TNF-α by ELISA. […] The chemiluminescence values were entered into Athena (Rigel) for curve fitting, EC50 calculation, and database storage.
as §1

[2] = IFNγ-primed monocyte-derived dendritic cells, 4 μg/ml Gardiquimod, 6 hours, TNF-α ELISA, read-out: TNFα (DC, GARD) (IC50)

Sequence of IRAK4 (Q9NWZ3 whole entry): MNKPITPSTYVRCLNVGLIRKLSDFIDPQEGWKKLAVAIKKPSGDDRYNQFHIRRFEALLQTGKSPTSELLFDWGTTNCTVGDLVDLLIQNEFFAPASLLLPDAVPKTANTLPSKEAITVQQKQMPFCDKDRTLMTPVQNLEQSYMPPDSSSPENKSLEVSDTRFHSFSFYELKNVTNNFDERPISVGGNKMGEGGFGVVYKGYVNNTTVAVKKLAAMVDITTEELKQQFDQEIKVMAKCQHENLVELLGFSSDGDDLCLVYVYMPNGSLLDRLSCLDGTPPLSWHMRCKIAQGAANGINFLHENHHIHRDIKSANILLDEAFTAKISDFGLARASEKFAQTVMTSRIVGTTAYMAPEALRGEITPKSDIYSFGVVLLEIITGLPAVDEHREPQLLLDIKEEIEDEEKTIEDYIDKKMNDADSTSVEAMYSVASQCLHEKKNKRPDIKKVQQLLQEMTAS

## CC(C)Oc1cc2c(OC[C@@H]3CC(F)(F)C(=O)N3)ncc(C#CC3(O)CCCC3)c2cc1C(N)=O [Compound I-48, (S)-1-((4,4-difluoro-5-oxopyrrolidin-2-yl)methoxy)-4-((1-hydroxycyclopentyl)ethynyl)-7-isopropoxyisoquinoline-6-carboxamide]
IRAK4
  IC50: 0.0044 µM
IL23p19 in THP-1 Cells
  IC50: 0.165 µM
TNF-α in human PBMCs
  IC50: 0.0569 µM
[1]; [2]
  IC50: 0.12 µM

## CC(C)Oc1cc2c(OC[C@@H]3CCC(=O)N3)ncc(C#CC3CCOCC3)c2cc1C(N)=O [Compound I-6, (S)-7-isopropoxy-1-((5-oxopyrrolidin-2-yl)methoxy)-4-((tetrahydro-2H-pyran-4-yl)ethynyl)isoquinoline-6-carboxamide]
IRAK4
  IC50: 0.0051 µM
IL23p19 in THP-1 Cells
  IC50: 0.195 µM
TNF-α in human PBMCs
  IC50: 0.199 µM
[1]; [2]
  IC50: 0.334 µM

## CC(C)Oc1cc2c(OC[C@@H]3CC(F)(F)C(=O)N3)ncc(-c3cnn(C4CCC4)c3)c2cc1C(N)=O [Compound I-68, (S)-4-(1-cyclobutyl-1H-pyrazol-4-yl)-1-((4,4-difluoro-5-oxopyrrolidin-2-yl)methoxy)-7-isopropoxyisoquinoline-6-carboxamide]
IRAK4
  IC50: 0.0095 µM
IL23p19 in THP-1 Cells
  IC50: 0.286 µM
TNF-α in human PBMCs
  IC50: 0.406 µM
[1]; [2]
  IC50: 0.545 µM

## CC(C)Oc1cc2c(O[C@@H]3CCCN(C(=O)CC#N)C3)ncc(C#CC3CCN(C)CC3)c2cc1C(N)=O [Compound I-97, (R)-1-((1-(2-cyanoacetyl)piperidin-3-yl)oxy)-7-isopropoxy-4-((1-methylpiperidin-4-yl)ethynyl)isoquinoline-6-carboxamide]
IRAK4
  IC50: 0.0154 µM
IL23p19 in THP-1 Cells
  IC50: 1.98 µM
TNF-α in human PBMCs
  IC50: 0.752 µM
[1]; [2]
  IC50: 0.25 µM

## CC(C)Oc1cc2c(O[C@@H]3CCCN(C(=O)CC#N)C3)ncc(C#CC3CNC3)c2cc1C(N)=O [Compound I-103, (R)-4-(azetidin-3-ylethynyl)-1-((1-(2-cyanoacetyl)piperidin-3-yl)oxy)-7-isopropoxyisoquinoline-6-carboxamide]
IRAK4
  IC50: 0.0052 µM
IL23p19 in THP-1 Cells
  IC50: 9.35 µM
TNF-α in human PBMCs
  IC50: 0.441 µM
[1]; [2]
  IC50: 0.828 µM

## CC(C)Oc1cc2c(OC[C@@H]3CCC(=O)N3)ncc(C#C[C@H]3CC[C@@](C)(O)CC3)c2cc1C(N)=O [Compound I-23, 4-(((1s,4R)-4-hydroxy-4-methylcyclohexyl)ethynyl)-7-isopropoxy-1-(((S)-5-oxopyrrolidin-2-yl)methoxy)isoquinoline-6-carboxamide]
IRAK4
  IC50: 0.0114 µM
IL23p19 in THP-1 Cells
  IC50: 0.712 µM
TNF-α in human PBMCs
  IC50: 2.12 µM
[1]; [2]
  IC50: 0.566 µM

## CC(C)Oc1cc2c(OC[C@@H]3CC(F)(F)C(=O)N3)ncc(C#CC3CNC3)c2cc1C(N)=O [Compound I-63, (S)-4-(azetidin-3-ylethynyl)-1-((4,4-difluoro-5-oxopyrrolidin-2-yl)methoxy)-7-isopropoxyisoquinoline-6-carboxamide]
IRAK4
  IC50: 0.0028 µM
IL23p19 in THP-1 Cells
  IC50: 5.9 µM
TNF-α in human PBMCs
  IC50: 1.21 µM
[1]; [2]
  IC50: 0.523 µM

## CC(C)Oc1cc2c(O[C@@H]3CCCN(C(=O)CC#N)C3)ncc(C#CCC3CCOCC3)c2cc1C(N)=O [Compound I-90, (R)-1-((1-(2-cyanoacetyl)piperidin-3-yl)oxy)-7-isopropoxy-4-(3-(tetrahydro-2H-pyran-4-yl)prop-1-yn-1-yl)isoquinoline-6-carboxamide]
IRAK4
  IC50: 0.0205 µM
IL23p19 in THP-1 Cells
  IC50: 1.42 µM
TNF-α in human PBMCs
  IC50: 0.433 µM
[1]; [2]
  IC50: 0.616 µM

## CC(C)Oc1cc2c(OC[C@@H]3CCC(=O)N3)ncc(-c3cnn(C4CCN(C(=O)OC(C)(C)C)CC4)c3)c2cc1C(N)=O [Compound I-44, tert-butyl (S)-4-(4-(6-carbamoyl-7-isopropoxy-1-((5-oxopyrrolidin-2-yl)methoxy)isoquinolin-4-yl)-1H-pyrazol-1-yl)piperidine-1-carboxylate]
IRAK4
  IC50: 0.0209 µM
IL23p19 in THP-1 Cells
  IC50: 0.937 µM
TNF-α in human PBMCs
  IC50: 0.727 µM
[1]; [2]
  IC50: 1.05 µM

## CC(C)Oc1cc2c(OC[C@@H]3CC(F)(F)C(=O)N3)ncc(C#CC3(O)CCN(C)CC3)c2cc1C(N)=O [Compound I-57, (S)-1-((4,4-difluoro-5-oxopyrrolidin-2-yl)methoxy)-4-((4-hydroxy-1-methylpiperidin-4-yl)ethynyl)-7-isopropoxyisoquinoline-6-carboxamide]
IRAK4
  IC50: 0.0045 µM
IL23p19 in THP-1 Cells
  IC50: 7.39 µM
TNF-α in human PBMCs
  IC50: 0.468 µM
[1]; [2]
  IC50: 0.634 µM

## CC(C)Oc1cc2c(OC[C@@H]3CCC(=O)N3)ncc(-c3cnn(C4CCCC4)c3)c2cc1C(N)=O [Compound I-34, (S)-4-(1-cyclopentyl-1H-pyrazol-4-yl)-7-isopropoxy-1-((5-oxopyrrolidin-2-yl)methoxy)isoquinoline-6-carboxamide]
IRAK4
  IC50: 0.0077 µM
IL23p19 in THP-1 Cells
  IC50: 1.3 µM
TNF-α in human PBMCs
  IC50: 0.295 µM
[1]; [2]
  IC50: 0.47 µM

## CC(C)Oc1cc2c(OC[C@@H]3CCC(=O)N3)ncc(C#CC3CCNCC3)c2cc1C(N)=O [Compound I-17, (S)-7-isopropoxy-1-((5-oxopyrrolidin-2-yl)methoxy)-4-(piperidin-4-ylethynyl)isoquinoline-6-carboxamide]
IRAK4
  IC50: 0.0017 µM
IL23p19 in THP-1 Cells
  IC50: 11.2 µM
TNF-α in human PBMCs
  IC50: 1.33 µM
[1]; [2]
  IC50: 17.2 µM

## CC(C)Oc1cc2c(O[C@@H]3CCCN(C(=O)CC#N)C3)ncc(C#CC3CCOCC3)c2cc1C(N)=O [Compound I-89, (R)-1-((1-(2-cyanoacetyl)piperidin-3-yl)oxy)-7-isopropoxy-4-((tetrahydro-2H-pyran-4-yl)ethynyl)isoquinoline-6-carboxamide]
IRAK4
  IC50: 0.0152 µM
IL23p19 in THP-1 Cells
  IC50: 1.71 µM
TNF-α in human PBMCs
  IC50: 0.556 µM
[1]; [2]
  IC50: 0.53 µM

## CC(C)Oc1cc2c(OC[C@@H]3CC(F)(F)C(=O)N3)ncc(C#CC3CCNCC3)c2cc1C(N)=O [Compound I-55, (S)-1-((4,4-difluoro-5-oxopyrrolidin-2-yl)methoxy)-7-isopropoxy-4-(piperidin-4-ylethynyl)isoquinoline-6-carboxamide]
IRAK4
  IC50: 0.0035 µM
IL23p19 in THP-1 Cells
  IC50: 4 µM
TNF-α in human PBMCs
  IC50: 1.2 µM
[1]; [2]
  IC50: 1.22 µM

## CC(C)Oc1cc2c(OC[C@@H]3CCC(=O)N3)ncc(Br)c2cc1C(N)=O [Compound I-1, (S)-4-bromo-7-isopropoxy-1-((5-oxopyrrolidin-2-yl)methoxy)isoquinoline-6-carboxamide]
IRAK4
  IC50: 0.034 µM
IL23p19 in THP-1 Cells
  IC50: 9.48 µM
TNF-α in human PBMCs
  IC50: 2.61 µM
[1]; 6 h, read-out: TNFα (DC, GARD) (IC50, μM)
  IC50: 2.64 µM
